“Also recorded” adds a separate entry of the source. Like-named read-outs stand apart in the source and are kept apart here.
Experiments:
PDE9A = target: T1, PDE9A (Homo sapiens, UniProt O76083); assay: Enzymatic assay against PDE9A (3H-cGMP substrate); assay type: biochemical
T1 construct: pET-PDE9A2 plasmid (catalytic domain, 181–506); made in house; host or cells: E. coli BL21 (Codonplus)
Method: The E. coli cells carrying pET-PDE9A2 was grown in LB medium (containing 100 μg/ml ampicillin and 0.4% glucose) at 37 °C until OD600 = 0.6–0.8. 0.1 mM iso-propyl-β-D-thiogalactopyranoside was added to induce the PDE9A2 protein expression at 15 °C for 20 h. PDE9A was purified on the nickel nitriloacetic acid (Ni-NTA) column (Qiagen, Hilden, Germany) and eluted with 0.25 M imidazole. The concentration of PDE9A was estimated by the absorbance at 280 nm (calculated using ProtParam software, http://web.expasy.org/protparam). A typical batch of purification yielded 30–60 mg PDE9A2 protein from a 0.5 l cell culture. The PDE9A2 proteins had purity greater than 90% as shown by sodium dodecyl sulphate polyacrylamide gel electrophoresis (SDS-PAGE).
The enzymatic activities of the catalytic domain of PDE9A2 were measured by using ^3H-cGMP as the substrate and the assay buffer of 50 mM Tris-HCl (pH 8.0), 10 mM MgCl2, and 1 mM DTT. Each assay used ^3H-cGMP 20,000–30,000 cpm. The reaction was carried out at room temperature (25 °C) for 15 min and then terminated by addition of 0.2 M ZnSO4. The reaction product was precipitated by 0.2 N Ba(OH)2, whereas unreacted ^3H-cGMP remained in the supernatant. […] At least eight concentrations of inhibitors were measured parallel in each measurement, resulting an inhibition curve to calculate the IC50 value of inhibitors by nonlinear regression. Each measurement was repeated at least three times. The mean and standard deviation statistics of these three IC50 values were used as the final IC50 value and the corresponding SD.

[1] = Antioxidant activity, oxygen radical absorbance capacity fluorescein (ORAC-FL) method; settings: for ORAC: samples 1–10 μM
Method: The antioxidant activity was determined by the modified oxygen radical absorbance capacity fluorescein (ORAC-FL) method[31]^,[32]. All the assays were diluted with 75 mM phosphate buffer (pH 7.4). The final reaction mixture was 200 μl. Test compound (20 μl) and fluorescein (120 μl, 150 nM final concentration) were placed in the wells of a black 96-well plate. After the mixture was incubated at 37 °C for 15 min, AAPH solution (60 μl, 12 mM final concentration) was added. The plate was placed in a Spectrafluor Plus plate reader (Tecan, Crailsheim, Germany) and the fluorescence was recorded every minute for 4 h with excitation at 485 nm and emission at 535 nm. Trolox was used as standard (1–8 μM, final concentration). A blank (FL + AAPH) in phosphate buffer instead of test compounds and trolox calibration were performed in each assay. The samples were measured at different concentration (1–10 μM). All the reaction mixture was prepared fourfold and at least three independent assays were performed for each sample. Fluorescence in time course was normalised on basis of the blank (without antioxidants). The ORAC-FL values were calculated as the reported method. ORAC-FL values were expressed as trolox equivalents.

PDE1B [2] = target: T2, PDE1B (Homo sapiens, UniProt Q01064); assay: Enzymatic assay against PDE1B (3H-cGMP substrate); assay type: biochemical; settings: 1000 nM (1 μM)
T2 construct: The catalytic domains of PDE1B (10–516) and PDE8A (480–820); made in house
Method: (§2) The enzymatic activities of PDE1B and PDE8A were assayed by using ^3H-cGMP and ^3H-cAMP as the substrates, respectively, following the same procedure for PDE9A.

PDE8A = target: T3, PDE8A (Homo sapiens, UniProt O60658); assay: Enzymatic assay against PDE8A (3H-cAMP substrate); assay type: biochemical
T3 construct: The catalytic domains of PDE1B (10–516) and PDE8A (480–820); made in house
Method: as §2

SH-SY5Y cells = assay: In vitro cell viability assay (MTT); assay type: cell-based, human; settings: for cytotoxicity to SH-SY5Y cells (in words): 48 h, up to 100 μM
Method: (§1) SH-SY5Y cells were used for the cytotoxicity test by the MTT (3–(4, 5-dimethyl-2-thiazolyl)-2,5-diphenyl-2-H-tetrazoliumbromide) method. After incubation of the SH-SY5Y cells (5 × 10^3) in a 96-well plate for 24 h, compounds at concentrations of 10, 20, 40, 60, 80, and 100 μM, were added. After incubation for 48 h, MTT solution was added to each cell well and the system was further inoculated for 4 h at 37 °C. The purple formazan dye and 120 μl DMSO were added to the cells and the absorbance was measured at 570 nm using EnSpire-2300 Multimode Reader (PerkinElmer, Waltham, MA).

PDE1B [3] = assay: Enzymatic assay against PDE1B (3H-cGMP substrate); assay type: biochemical; settings: estimated from inhibition at 1 μM
Method: as §2

[4] = In vitro cell viability assay (MTT); assay type: cell-based, human; settings: human, SH-SY5Y cells, 48 h incubation, read-out: cellular viability
Method: as §1

PDE1B [5] = settings: printed under head 'Inhibition of PDE1B at 1000 nM'; cited from earlier work
[6] = Table 1 and text, means of three independent determinations, read-out: IC50±SD

T3 sequence (O60658 480-820): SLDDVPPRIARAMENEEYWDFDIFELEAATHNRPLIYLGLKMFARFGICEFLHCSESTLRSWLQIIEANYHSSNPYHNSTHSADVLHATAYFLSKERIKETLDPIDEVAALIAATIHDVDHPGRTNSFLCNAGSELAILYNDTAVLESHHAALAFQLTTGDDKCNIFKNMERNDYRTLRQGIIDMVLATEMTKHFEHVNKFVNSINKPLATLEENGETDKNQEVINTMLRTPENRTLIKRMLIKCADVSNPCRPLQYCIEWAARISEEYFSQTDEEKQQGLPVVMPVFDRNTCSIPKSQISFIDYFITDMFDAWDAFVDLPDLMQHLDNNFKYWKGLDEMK
T1 sequence (O76083 241-566): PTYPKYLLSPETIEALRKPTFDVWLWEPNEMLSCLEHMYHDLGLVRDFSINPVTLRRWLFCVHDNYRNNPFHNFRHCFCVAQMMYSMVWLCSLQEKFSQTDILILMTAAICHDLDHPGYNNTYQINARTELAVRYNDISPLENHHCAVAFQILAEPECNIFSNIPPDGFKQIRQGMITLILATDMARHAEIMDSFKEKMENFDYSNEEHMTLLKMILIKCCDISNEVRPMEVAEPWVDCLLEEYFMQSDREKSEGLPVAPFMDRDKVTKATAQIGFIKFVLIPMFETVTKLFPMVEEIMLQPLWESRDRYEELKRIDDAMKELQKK
T2 sequence (Q01064 10-516): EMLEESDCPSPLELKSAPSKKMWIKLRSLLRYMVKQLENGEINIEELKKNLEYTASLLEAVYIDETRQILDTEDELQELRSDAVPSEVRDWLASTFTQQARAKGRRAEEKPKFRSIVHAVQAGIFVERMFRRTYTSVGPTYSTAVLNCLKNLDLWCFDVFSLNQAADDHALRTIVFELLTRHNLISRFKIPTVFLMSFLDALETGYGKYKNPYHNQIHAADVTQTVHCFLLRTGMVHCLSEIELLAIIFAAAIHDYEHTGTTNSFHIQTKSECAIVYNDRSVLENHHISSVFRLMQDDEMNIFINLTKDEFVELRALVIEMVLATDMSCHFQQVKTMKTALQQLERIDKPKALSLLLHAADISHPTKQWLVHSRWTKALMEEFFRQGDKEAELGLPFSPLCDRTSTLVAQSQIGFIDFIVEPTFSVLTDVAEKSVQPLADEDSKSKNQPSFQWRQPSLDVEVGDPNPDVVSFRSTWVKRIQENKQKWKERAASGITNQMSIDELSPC

Row | IC50 (PDE9A; [6]) | Compound | ORAC-FL value / antioxidant activity (in words) [1] | ORAC [1] | also measured
1 | 65 ± 4 nM | COc1ccc(/C=C/C(=O)N[C@H](C)c2nc3c(cnn3C3CCCC3)c(=O)[nH]2)cc1OC [Compound 1c, (R, E)-N-(1–(1-cyclopentyl-4-oxo-4,5-dihydro-1H-pyrazolo[3,4-d]pyrimidin-6-yl)ethyl)-3– (3,4-dimethoxyphenyl)acrylamide] | low ORAC-FL values | 0.23 trolox equivalents | –
2 | > 500 nM | Cc1c(C)c2c(c(C)c1O)CCC(C)(C(=O)N[C@H](C)c1nc3c(cnn3C3CCCC3)c(=O)[nH]1)O2 (stereo partly drawn) [Compound 3, N-((R)-1–(1-cyclopentyl-4-oxo-4,5-dihydro-1H-pyrazolo[3,4-d]pyrimidin-6-yl)ethyl) -6-hydroxy-2,5,7,8-tetramethylchromane-2-carboxamide] | – | 0.24 trolox equivalents | –
3 | 126 ± 15 nM | COc1cc(/C=C/C(=O)N[C@H](C)c2nc3c(cnn3C3CCCC3)c(=O)[nH]2)ccc1O [Compound 1a, (R, E)-N-(1–(1-cyclopentyl-4-oxo-4,5-dihydro-1H-pyrazolo[3,4-d]pyrimidin-6-yl)ethyl)-3–(4-hydroxy-3-methoxyphenyl)acrylamide] | – | 2.4 trolox equivalents | –
4 | 133 ± 22 nM | C[C@@H](NC(=O)/C=C/c1ccc(N(C)C)cc1)c1nc2c(cnn2C2CCCC2)c(=O)[nH]1 [Compound 1i, (R, E)-N-(1–(1-cyclopentyl-4-oxo-4,5-dihydro-1H-pyrazolo[3,4-d]pyrimidin-6-yl)ethyl)-3–(4-(dimethylamino)phenyl)acrylamide] | – | 1.00 trolox equivalents | –
5 | 130 ± 6 nM | C[C@@H](NC(=O)/C=C/c1ccc(C(F)(F)F)cc1)c1nc2c(cnn2C2CCCC2)c(=O)[nH]1 [Compound 1k, (R, E)-N-(1–(1-cyclopentyl-4-oxo-4,5-dihydro-1H-pyrazolo[3,4-d]pyrimidin-6-yl)ethyl)-3–(4-(trifluoromethyl)phenyl)acrylamide] | low ORAC-FL values | 0.02 trolox equivalents | –
6 | 190 ± 7 nM | COc1cccc(/C=C/C(=O)N[C@H](C)c2nc3c(cnn3C3CCCC3)c(=O)[nH]2)c1 [Compound 1f, (R, E)-N-(1–(1-cyclopentyl-4-oxo-4,5-dihydro-1H-pyrazolo[3,4-d]pyrimidin-6-yl)ethyl)-3–(3-methoxyphenyl)acrylamide] | low ORAC-FL values | 0.12 trolox equivalents | –
7 | 186 ± 7 nM | C[C@@H](NC(=O)/C=C/c1cccc(Cl)c1)c1nc2c(cnn2C2CCCC2)c(=O)[nH]1 [Compound 1j, (R, E)-N-3–(3-chlorophenyl)-N-(1–(1-cyclopentyl-4-oxo-4,5-dihydro-1H-pyrazolo[3,4-d]pyrimidin-6-yl)ethyl)acrylamide] | low ORAC-FL values | 0.08 trolox equivalents | –
8 | 83 ± 11 nM | COc1ccc(/C=C/C(=O)N[C@H](C)c2nc3c(cnn3C3CCCC3)c(=O)[nH]2)cc1O [Compound 1d, (R, E)-N-(1–(1-cyclopentyl-4-oxo-4,5-dihydro-1H-pyrazolo[3,4-d]pyrimidin-6-yl)ethyl)-3–(3-hydroxy-4-methoxyphenyl)acrylamide] | – | 1.26 trolox equivalents | –
9 | – | C[C@@H](NC(=O)CCCC[C@@H]1CCSS1)c1nc2c(cnn2C2CCCC2)c(=O)[nH]1 [Compound 2, N-((1N)-1–(1-cyclopentyl-4-oxo-3a, 4,5,6-tetrahydro-1H-pyrazolo[3,4-d]pyrimi–din-6-yl)ethyl)-5-((R)-1,2-dithiolan-3-yl)pentanamide] | low antioxidant activity | 0.28 trolox equivalents | inhibition at 1 µM (PDE1B [2]): 59%; inhibition at 10 µM (PDE8A): 9%; cellular viability (SH-SY5Y cells; 100 μM, 48 h incubation): no significant effect on cell viability; cytotoxicity to SH-SY5Y cells (in words) (SH-SY5Y cells): not toxic
10 | 63 ± 3 nM | C[C@@H](NC(=O)/C=C/c1ccc(O)cc1)c1nc2c(cnn2C2CCCC2)c(=O)[nH]1 [Compound 1g, (R, E)-N-(1–(1-cyclopentyl-4-oxo-4,5-dihydro-1H-pyrazolo[3,4-d]pyrimidin-6-yl)ethyl)-3–(4-hydroxyphenyl)acrylamide] | – | 2.9 trolox equivalents | –
11 | 64 ± 2 nM | C[C@@H](NC(=O)/C=C/c1ccc(O)c(O)c1)c1nc2c(cnn2C2CCCC2)c(=O)[nH]1 [Compound 1b, (R, E)-N-(1–(1-cyclopentyl-4-oxo-4,5-dihydro-1H-pyrazolo[3,4-d]pyrimidin-6-yl)ethyl)-3–(3,4-dihydroxyphenyl)acrylamide] | – | 2.5 trolox equivalents | –
12 | – | COc1cc(/C=C/C(=O)O)ccc1O [Ferulic acid, reference compound] | – | 1.6 trolox equivalents | –
13 | 57 ± 4 nM | C[C@@H](NC(=O)Cc1ccc(O)c(O)c1)c1nc2c(cnn2C2CCCC2)c(=O)[nH]1 [Compound 1l, (R, E)-N-(1–(1-cyclopentyl-4-oxo-4,5-dihydro-1H-pyrazolo[3,4-d]pyrimidin-6-yl)ethyl)-2–(3,4-dihydroxyphenyl)acetamide] | – | 2.6 trolox equivalents | –
14 | – | C[C@@H]1CN(Cc2ncccn2)C[C@H]1c1nc2c(cnn2C2CCOCC2)c(=O)[nH]1 [PF-04447943, 6-[(3S,4S)-4-Methyl-1-(pyrimidin-2-ylmethyl)pyrrolidin-3-yl]-1-(tetrahydro-2H-pyran-4-yl)-1,5-dihydro-4H-pyrazolo[3,4-d]pyrimidin-4-one] | – | – | IC50 (PDE1B [5]): 1390 nM

Row | Compound | IC50 (PDE9A; [6]) | ORAC-FL value / antioxidant activity (in words) [1] | ORAC [1] | also measured
15 | C[C@@H](NC(=O)/C=C/c1cccc(O)c1)c1nc2c(cnn2C2CCCC2)c(=O)[nH]1 [Compound 1h, (R, E)-N-(1–(1-cyclopentyl-4-oxo-4,5-dihydro-1H-pyrazolo[3,4-d]pyrimidin-6-yl)ethyl)-3–(3-hydroxyphenyl)acrylamide] | 56 ± 7 nM | – | 3.3 trolox equivalents | IC50 (PDE9A; Table 2, read-out: IC50 (nM) of PDE9A): 56 ± 1 nM; inhibition at 1 µM (PDE1B [2]): 13%; fold of selectivity against PDE9 over PDE1B (PDE1B [3]): > 25 fold; inhibition at 10 µM (PDE8A): 10%; fold of selectivity against PDE9 over PDE8A (PDE8A; estimated from inhibition at 10 μM): > 250 fold; viability at 48 h, 40 µM ([4]; 40 μM): ~90%; viability at 48 h, 100 µM ([4]; 100 μM): ~70%; cytotoxicity to SH-SY5Y cells (in words) (SH-SY5Y cells): no cytotoxicity; also recorded: not toxic
